Source: the supplement of paper PMC10307832

Tests used:
Test in all cases: relative viability (nuclei count vs DMSO), 5 days (fraction); higher = more cells survive
[1] = tested on: CAL-12T
Summary of the method: (§1)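 Relative viability was taken as the ratio of nuclei in treated wells to nuclei in vehicle wells. Lung cancer cell lines in 1536-well plates received compounds by pin tool one day after seeding, either one drug alone or a fixed anchor-drug dose plus five library-drug doses (not always all listed) in √10 steps. Nuclei were counted on 4× images after 5 days of treatment, and values are medians of duplicate plates.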

[2] = tested on: COR-L 105
Summary of the method: as §1

[3] = tested on: H3255
Summary of the method: as §1

[4] = tested on: HARA
Summary of the method: as §1

[5] = tested on: HCC-15
Summary of the method: as §1

[6] = tested on: HCC-366
Summary of the method: as §1

[7] = tested on: LC-2-ad
Summary of the method: as §1

[8] = tested on: LU99A
Summary of the method: as §1

[9] = tested on: NCI-H1395
Summary of the method: as §1

[10] = tested on: NCI-H1666
Summary of the method: as §1

[11] = tested on: NCI-H1734
Summary of the method: as §1

[12] = tested on: NCI-H1944
Summary of the method: as §1

[13] = tested on: NCI-H1975
Summary of the method: as §1

[14] = tested on: NCI-H1993
Summary of the method: as §1

[15] = tested on: NCI-H3122
Summary of the method: as §1

[16] = tested on: NCI-H522
Summary of the method: as §1

[17] = tested on: NCI-H647
Summary of the method: as §1

[18] = tested on: NCI-H838
Summary of the method: as §1

[19] = tested on: PC-14
Summary of the method: as §1

[20] = tested on: PC-3 [JPC-3]
Summary of the method: as §1

[21] = tested on: SK-LU-1
Summary of the method: as §1

Q: Which results are given for COCC1(CO)C(=O)C2CCN1CC2 (stereo not drawn) [PRIMA-1MET] + O=C(c1cc(Cc2n[nH]c(=O)c3ccccc23)ccc1F)N1CCN(C(=O)C2CC2)CC1 [Olaparib] (partner 8 µM)?
A: relative viability ([1]; first compound 0.2 µM): 0.806; relative viability ([1]; first compound 0.6325 µM): 0.747; relative viability ([1]; first compound 2 µM): 0.639; relative viability ([1]; first compound 6.325 µM): 0.445; relative viability ([1]; first compound 20 µM): 0.696; relative viability ([2]; first compound 0.2 µM): 0.687; relative viability ([2]; first compound 0.6325 µM): 0.685; relative viability ([2]; first compound 2 µM): 0.713; relative viability ([2]; first compound 6.325 µM): 0.688; relative viability ([2]; first compound 20 µM): 0.458; relative viability ([3]; first compound 0.2 µM): 0.627; relative viability ([3]; first compound 0.6325 µM): 0.502; relative viability ([3]; first compound 2 µM): 0.576; relative viability ([3]; first compound 6.325 µM): 0.606; relative viability ([3]; first compound 20 µM): 0.533; relative viability ([4]; first compound 0.2 µM): 0.69; relative viability ([4]; first compound 0.6325 µM): 0.832; relative viability ([4]; first compound 2 µM): 0.7; relative viability ([4]; first compound 6.325 µM): 0.75; relative viability ([4]; first compound 20 µM): 0.741; relative viability ([5]; first compound 0.2 µM): 0.789; relative viability ([5]; first compound 0.6325 µM): 0.772; relative viability ([5]; first compound 2 µM): 0.746; relative viability ([5]; first compound 6.325 µM): 0.668; relative viability ([5]; first compound 20 µM): 0.628; relative viability ([6]; first compound 0.2 µM): 0.396; relative viability ([6]; first compound 0.6325 µM): 0.346; relative viability ([6]; first compound 2 µM): 0.328; relative viability ([6]; first compound 6.325 µM): 0.34; relative viability ([6]; first compound 20 µM): 0.0865; relative viability ([7]; first compound 0.2 µM): 0.751; relative viability ([7]; first compound 0.6325 µM): 0.673; relative viability ([7]; first compound 2 µM): 0.659; relative viability ([7]; first compound 6.325 µM): 0.68; relative viability ([7]; first compound 20 µM): 0.7; relative viability ([8]; first compound 0.2 µM): 0.312; relative viability ([8]; first compound 0.6325 µM): 0.24; relative viability ([8]; first compound 2 µM): 0.263; relative viability ([8]; first compound 6.325 µM): 0.22; relative viability ([8]; first compound 20 µM): 0.0441; relative viability ([9]; first compound 0.2 µM): 0.51; relative viability ([9]; first compound 2 µM): 0.476; relative viability ([9]; first compound 6.325 µM): 0.432; relative viability ([9]; first compound 20 µM): 0.426; relative viability ([10]; first compound 0.2 µM): 0.773; relative viability ([10]; first compound 0.6325 µM): 0.753; relative viability ([10]; first compound 2 µM): 0.801; relative viability ([10]; first compound 6.325 µM): 0.735; relative viability ([10]; first compound 20 µM): 0.739; relative viability ([11]; first compound 0.2 µM): 0.711; relative viability ([11]; first compound 0.6325 µM): 0.627; relative viability ([11]; first compound 2 µM): 0.581; relative viability ([11]; first compound 6.325 µM): 0.631; relative viability ([11]; first compound 20 µM): 0.0357; relative viability ([12]; first compound 0.2 µM): 0.479; relative viability ([12]; first compound 0.6325 µM): 0.393; relative viability ([12]; first compound 2 µM): 0.415; relative viability ([12]; first compound 6.325 µM): 0.398; relative viability ([12]; first compound 20 µM): 0.457; relative viability ([13]; first compound 0.2 µM): 1.01; relative viability ([13]; first compound 0.6325 µM): 0.699; relative viability ([13]; first compound 2 µM): 0.775; relative viability ([13]; first compound 6.325 µM): 0.847; relative viability ([13]; first compound 20 µM): 0.616; relative viability ([14]; first compound 0.2 µM): 1.21; relative viability ([14]; first compound 2 µM): 0.95; relative viability ([14]; first compound 6.325 µM): 1.07; relative viability ([14]; first compound 20 µM): 0.896; relative viability ([15]; first compound 0.2 µM): 0.661; relative viability ([15]; first compound 0.6325 µM): 0.55; relative viability ([15]; first compound 2 µM): 0.614; relative viability ([15]; first compound 6.325 µM): 0.698; relative viability ([15]; first compound 20 µM): 0.621; relative viability ([16]; first compound 0.2 µM): 0.656; relative viability ([16]; first compound 0.6325 µM): 0.599; relative viability ([16]; first compound 2 µM): 0.625; relative viability ([16]; first compound 6.325 µM): 0.604; relative viability ([16]; first compound 20 µM): 0.0709; relative viability ([17]; first compound 0.2 µM): 0.461; relative viability ([17]; first compound 0.6325 µM): 0.614; relative viability ([17]; first compound 2 µM): 0.722; relative viability ([17]; first compound 6.325 µM): 0.607; relative viability ([17]; first compound 20 µM): 0.593; relative viability ([18]; first compound 0.2 µM): 0.788; relative viability ([18]; first compound 0.6325 µM): 0.76; relative viability ([18]; first compound 2 µM): 0.809; relative viability ([18]; first compound 6.325 µM): 0.789; relative viability ([18]; first compound 20 µM): 0.579; relative viability ([19]; first compound 0.2 µM): 0.261; relative viability ([19]; first compound 0.6325 µM): 0.208; relative viability ([19]; first compound 2 µM): 0.24; relative viability ([19]; first compound 6.325 µM): 0.275; relative viability ([19]; first compound 20 µM): 0.209; relative viability ([20]; first compound 0.2 µM): 1.4; relative viability ([20]; first compound 0.6325 µM): 1.26; relative viability ([20]; first compound 2 µM): 1.11; relative viability ([20]; first compound 6.325 µM): 1.14; relative viability ([20]; first compound 20 µM): 0.981; relative viability ([21]; first compound 0.2 µM): 0.504; relative viability ([21]; first compound 0.6325 µM): 0.494; relative viability ([21]; first compound 2 µM): 0.365; relative viability ([21]; first compound 6.325 µM): 0.455; relative viability ([21]; first compound 20 µM): 0.237
